Data: patent US9510592B2, “Pesticidal compositions and processes related thereto” (Dow AgroSciences LLC, priority 2012, dated 2016)

test system: Beet Armyworm (Spodoptera exigua); experiment: Bioassay on Beet Armyworm (BAW), 128-well diet tray assay; type: in vivo; conditions: Spodoptera exigua, 168 h; percent mortality of second instar larvae, 50 μg/cm^2 on artificial diet, five to seven days, 25° C.; Table 3; read-out: BAW Rating
Summary of the method: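 Second-instar larvae (one to five per well) were placed on artificial diet surface-treated with 50 μg/cm^2 compound in acetone-water and held at 25 °C, 14:10 light-dark, for five to seven days. Percent mortality was averaged over eight wells.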

SMILES	pest or weed control at 50 µg/cm2, 50 µg/cm2
Cc1cc(/C=C/C(c2cc(Cl)cc(Cl)c2)C(F)(F)F)ccc1C(=O)NCc1cccnc1 (stereo not drawn) [AC14]	50 to 100%
Cc1cc(/C=C/C(c2cc(Cl)c(Cl)c(Cl)c2)C(F)(F)F)ccc1C(=O)NC1CS(=O)(=O)C1 (stereo not drawn) [AC25]	50 to 100%
FC(F)(F)c1cc(Cl)cc(C(/C=C/c2ccc(-n3cncn3)cc2)C(F)(F)F)c1 (stereo not drawn) [DC19]	50 to 100%

same assay, conditions: percent mortality of second instar larvae, 50 μg/cm^2 on artificial diet, five to seven days, 25° C.; Table 3

SMILES	BAW Rating
C/C(=C\C(c1cc(Cl)cc(Cl)c1)C(F)(F)F)c1ccc(-n2cncn2)cc1 (stereo not drawn) [DC68, (E)-1-(4-(4-(3,5-Dichlorophenyl)-5,5,5-trifluoropent-2-en-2-yl)phenyl)-1H-1,2,4-triazole]	A (50-100)
Cc1cc(/C=C/C(c2cc(Cl)cc(Cl)c2)C(F)(F)F)ccc1C(=O)NNc1ccccc1F (stereo not drawn) [AC17]	A (50-100)
O=C(CNC(=O)c1ccc(/C=C/C(c2cc(Cl)c(F)c(Cl)c2)C(F)(F)F)cc1F)NCC(F)(F)F (stereo not drawn) [AC68]	A (50-100)
O=C(NC1CSC1)c1ccc(/C=C/C(c2cc(Cl)c(Cl)c(Cl)c2)C(F)(F)F)cc1Cl (stereo not drawn) [AC29]	A (50-100)
Cc1cc(/C=C/C(c2cc(Cl)cc(Cl)c2)C(F)(F)F)ccc1C(=O)NCc1ccc(Cl)cc1 (stereo not drawn) [AC48]	A (50-100)
Cc1cc(/C=C/C(c2cc(Cl)c(Cl)c(Cl)c2)C(F)(F)F)ccc1C(=O)NCc1cnc(Cl)s1 (stereo not drawn) [AC26]	A (50-100)
Cc1cc(/C=C/C(c2cc(Cl)cc(Cl)c2)C(F)(F)F)ccc1C(=O)NCc1ccoc1 (stereo not drawn) [AC20]	A (50-100)
Cc1cc(/C=C/C(c2cc(Cl)cc(Cl)c2)C(F)(F)F)ccc1C(=O)NCC(=O)N(C)CC(F)(F)F (stereo not drawn) [AC51]	A (50-100)
Cc1cc(/C=C/C(c2cc(Cl)cc(Cl)c2)C(F)(F)F)ccc1C(=O)NCc1nc2ccccc2s1 (stereo not drawn) [AC42]	A (50-100)
Cc1cc(/C=C/C(c2cc(Cl)cc(Cl)c2)C(F)(F)F)ccc1C(=O)NCc1ccc(Cl)nc1 (stereo not drawn) [AC7]	A (50-100)
O=C(NC1CCCc2cc(/C=C/C(c3cc(Cl)c(Cl)c(Cl)c3)C(F)(F)F)ccc21)C1CC1 (stereo not drawn) [BC7]	A (50-100)
CS(=O)(=O)CCC(=O)NCc1ccc(/C=C/C(c2cc(Cl)c(Cl)c(Cl)c2)C(F)(F)F)cc1Cl (stereo not drawn) [CC30, (E)-N-(2-Chloro-4-(4,4,4-trifluoro-3-(3,4,5-trichlorophenyl)but-1-en-1-yl)benzyl)-3-(methylsulfonyl)propanamide]	A (50-100)
CCNC(=O)NCc1ccc(/C=C/C(c2cc(Cl)cc(Cl)c2)C(F)(F)F)cc1Cl (stereo not drawn) [CC31, (E)-1-(2-Chloro-4-(3-(3,5-dichlorophenyl)-4,4,4-trifluorobut-1-en-1-yl)benzyl)-3-ethylurea]	B (More than 0-Less than 50)
O=C(NC1CCNCC1)c1ccc(/C=C/C(c2cc(Cl)c(Cl)c(Cl)c2)C(F)(F)F)cc1Br (stereo not drawn) [AC114, (E)-2-Bromo-N-(piperidin-4-yl)-4-(4,4,4-trifluoro-3-(3,4,5-trichlorophenyl)but-1-en-1-yl)benzamide]	A (50-100)
O=C(CC(F)(F)F)NCc1ccc(/C=C/C(c2cc(Cl)c(Cl)c(Cl)c2)C(F)(F)F)cc1Br (stereo not drawn) [CC25]	A (50-100)
Cc1cc(/C=C/C(c2cc(Cl)cc(Cl)c2)C(F)(F)F)ccc1C(=O)NCC(=O)NC1CSC1 (stereo not drawn) [AC41]	A (50-100)
O=C(CC(F)(F)F)NCc1ccc(/C=C/C(c2cc(Cl)cc(Cl)c2)C(F)(F)F)cc1Cl (stereo not drawn) [CC9]	A (50-100)
O=C(NCc1ccc(/C=C/C(c2cc(Cl)c(Cl)c(Cl)c2)C(F)(F)F)cc1F)C1CC1 (stereo not drawn) [CC28]	A (50-100)
O=C(NC1CS(=O)(=O)C1)c1ccc(/C=C/C(c2cc(Cl)cc(Cl)c2)C(F)(F)F)cc1F (stereo not drawn) [AC83, (E)-4-(3-(3,5-Dichlorophenyl)-4,4,4-trifluorobut-1-en-1-yl)-N-(1,1-dioxidothietan-3-yl)-2-fluorobenzamide]	A (50-100)
FC(F)(F)C(/C=C/c1ccc(-n2cncn2)c(Cl)c1)c1cc(Cl)c(Cl)c(Cl)c1 (stereo not drawn) [DC49]	A (50-100)
CN(C)C(=O)NCc1ccc(/C=C/C(c2cc(Cl)c(Cl)c(Cl)c2)C(F)(F)F)cc1Cl (stereo not drawn) [CC36, (E)-3-(2-Chloro-4-(4,4,4-trifluoro-3-(3,4,5-trichlorophenyl)but-1-en-1-yl)benzyl)-1,1-dimethylurea]	A (50-100)
O=C(NCc1ccc(Cl)nc1)c1ccc(/C=C/C(c2cc(Cl)c(F)c(Cl)c2)C(F)(F)F)cc1Br (stereo not drawn) [AC63]	A (50-100)

SMILES	BAW Rating
O=C(NNc1ccc(/C=C/C(c2cc(Cl)c(Cl)c(Cl)c2)C(F)(F)F)cc1)C1CC1 (stereo not drawn) [CC50, (E)-N′-(4-(4,4,4-Trifluoro-3-(3,4,5-trichlorophenyl)but-1-en-1-yl)phenyl)cyclopropanecarbohydrazide]	A (50-100)
CCc1cc(/C=C/C(c2cc(Cl)c(F)c(Cl)c2)C(F)(F)F)ccc1C(=O)NC1CS(=O)(=O)C1 (stereo not drawn) [AC86]	A (50-100)
FC(F)(F)C(/C=C/c1ccc(CNC(=S)C2CC2)c(Cl)c1)c1cc(Cl)c(Cl)c(Cl)c1 (stereo not drawn) [CC20]	A (50-100)
Cc1cc(/C=C/C(c2cc(Cl)cc(Cl)c2)C(F)(F)F)ccc1C(=O)NCc1cncnc1 (stereo not drawn) [AC39, 4-((E)-3-(3,5-Dichlorophenyl)-4,4,4-trifluorobut-1-enyl)-2-methyl-N-((pyrimidin-5-yl)methyl)benzamide]	A (50-100)
N#Cc1cc(/C=C\C(c2cc(Cl)c(F)c(Cl)c2)C(F)(F)F)ccc1-n1cncn1 (stereo not drawn) [DC46]	A (50-100)
Cc1cc(/C=C/C(c2cc(Cl)cc(Cl)c2)C(F)(F)F)ccc1C(=O)NCc1cnccn1 (stereo not drawn) [AC43]	A (50-100)
COC(/C=C/c1ccc(-n2cncn2)cc1)(c1cc(Cl)cc(Cl)c1)C(F)(F)F (stereo not drawn) [DC70, (E)-1-(4-(3-(3,5-Dichlorophenyl)-4,4,4-trifluoro-3-methoxybut-1-en-1-yl)phenyl)-1H-1,2,4-triazole]	A (50-100)
FC(F)(F)C(/C=C/c1ccc(-n2cncn2)cc1)c1ccc(Cl)cc1 (stereo not drawn) [DC4]	A (50-100)
Cc1cc(/C=C/C(c2cc(Cl)cc(Cl)c2)C(F)(F)F)ccc1C(=O)NCc1ccccc1F (stereo not drawn) [AC9]	A (50-100)
Cc1cc(/C=C/C(c2cc(Cl)cc(Cl)c2)C(F)(F)F)ccc1C(=O)NN(C)c1ccccc1F (stereo not drawn) [AC45]	A (50-100)
Cc1cc(C)cc(C(/C=C/c2ccc(-n3cncn3)cc2)C(F)(F)F)c1 (stereo not drawn) [DC11]	A (50-100)
Cc1cc(/C=C/C(c2cc(Cl)cc(Cl)c2)C(F)(F)F)ccc1-n1cncn1 (stereo not drawn) [DC62]	A (50-100)
O=C(CC(F)(F)F)NC1CCCc2cc(/C=C/C(c3cc(Cl)c(Cl)c(Cl)c3)C(F)(F)F)ccc21 (stereo not drawn) [BC5]	A (50-100)
CCNC(=O)NCc1ccc(/C=C/C(c2cc(Cl)c(Cl)c(Cl)c2)C(F)(F)F)cc1Br (stereo not drawn) [CC33]	A (50-100)
N#Cc1cc(/C=C/C(c2cc(Cl)c(F)c(Cl)c2)C(F)(F)F)ccc1-n1cncn1 (stereo not drawn) [DC35]	A (50-100)
FC(F)(F)C(/C=C/c1ccc(-n2cncn2)cc1Cl)c1cc(Cl)c(Cl)c(Cl)c1 (stereo not drawn) [DC66]	A (50-100)
CCOC(=O)c1cc(/C=C/C(c2cc(Cl)cc(Cl)c2)C(F)(F)F)ccc1-n1cncn1 (stereo not drawn) [DC60]	A (50-100)
Cc1cc(/C=C/C(c2cc(Cl)cc(Cl)c2)C(F)(F)F)ccc1C(=O)NCC(=O)NC1CS(=O)(=O)C1 (stereo not drawn) [AC81]	A (50-100)
Cc1cc(/C=C/C(c2cc(Cl)c(Cl)c(Cl)c2)C(F)(F)F)ccc1C(=O)NC(C)(C)c1ccccn1 (stereo not drawn) [AC27]	A (50-100)
FC(F)(F)C(/C=C/c1ccc(-n2cncn2)cc1)c1cc(Cl)cc(Cl)c1 (stereo not drawn) [DC1, (E)-1-(4-(3-(3,5-Dichlorophenyl)-4,4,4-trifluorobut-1-en-1-yl)phenyl)-1H-1,2,4-triazole]	A (50-100)
O=C(NCc1ccc(C(F)(F)F)nc1)c1ccc(/C=C/C(c2cc(Cl)c(Cl)c(Cl)c2)C(F)(F)F)cc1Br (stereo not drawn) [AC75]	A (50-100)
O=C(CNC(=O)c1ccc(/C=C/C(c2cc(Cl)c(Cl)c(Cl)c2)C(F)(F)F)cc1Cl)NCC(F)(F)F (stereo not drawn) [AC64, (E)-2-Chloro-N-(2-oxo-2-((2,2,2-trifluoroethyl)amino)ethyl)-4-(4,4,4-trifluoro-3-(3,4,5-trichlorophenyl)but-1-en-1-yl)benzamide]	A (50-100)

test system: Corn Earworm (Helicoverpa zea); experiment: Bioassay on Corn Earworm (CEW), 128-well diet tray assay; type: in vivo; conditions: Helicoverpa zea, 168 h; percent mortality of second instar larvae, 50 μg/cm^2 on artificial diet, five to seven days, 25° C.; Table 3; read-out: CEW Rating
Procedure: Certain molecules disclosed in this document were tested against BAW and CEW and CL using procedures described in the following examples. In the reporting of the results, the “BAW & CEW & CL Rating Table” was used (See Table Section).
Bioassays On CEW (Helicoverpa zea)
Bioassays on CEW were conducted using a 128-well diet tray assay. one to five second instar CEW larvae were placed in each well (3 mL) of the diet tray that had been previously filled with 1 mL of artificial diet to which 50 μg/cm^2 of the test compound (dissolved in 50 μL of 90:10 acetone-water mixture) had been applied (to each of eight wells) and then allowed to dry. Trays were covered with a clear self-adhesive cover, and held at 25° C., 14:10 light-dark for five to seven days. Percent mortality was recorded for the larvae in each well; activity in the eight wells was then averaged. The results are indicated in the table entitled “Table 3: Assay Results” (See Table Section).

SMILES	pest or weed control at 50 µg/cm2
Cc1cc(/C=C/C(c2cc(Cl)cc(Cl)c2)C(F)(F)F)ccc1C(=O)NCc1cccnc1 (stereo not drawn) [AC14]	0 to 50%
Cc1cc(/C=C/C(c2cc(Cl)c(Cl)c(Cl)c2)C(F)(F)F)ccc1C(=O)NC1CS(=O)(=O)C1 (stereo not drawn) [AC25]	50 to 100%
FC(F)(F)c1cc(Cl)cc(C(/C=C/c2ccc(-n3cncn3)cc2)C(F)(F)F)c1 (stereo not drawn) [DC19]	50 to 100%

same assay, conditions: percent mortality of second instar larvae, 50 μg/cm^2 on artificial diet, five to seven days, 25° C.; Table 3

SMILES	CEW Rating
O=C(NCc1ccc(/C=C/C(c2cc(Cl)c(Cl)c(Cl)c2)C(F)(F)F)cc1Cl)Oc1ccccc1Cl (stereo not drawn) [CC40]	A (50-100)
